The source of these data is patent US20090181972A1, “Novel Inhibitors of Cysteine Proteases, the Pharmaceutical Compositions Thereof and their Therapeutic Applications” (priority 2005, published 2009).

Read-outs that look alike come from different tables or passages of the source.

Assay [1] has as its system HCT116 colon cancer cells. As to the kind of experiment: HCT116 cell viability and proliferation assay (MTS). It counts as cell-based. To be noted: mean of three independent experiments, read-out: HCT116 GI50 D3. Put shortly:
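HCT116 cells, 10^3 per well, treated 24 h after seeding with eight concentrations from 10 μM to 5 nM (0.5% final DMSO), in triplicate, for 72 h. Viability read by MTS reduction (2 h) at 492 nm. GI50 from sigmoidal variable-slope fit; mean of three independent experiments.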

The target in another assay is T1, USP7 (Homo sapiens, UniProt Q93009).
T1 construct: His tag (pFastBac-HT vector) (N); made in house; host or cells: Sf9 or High Five insect cells (baculovirus)
Put plainly: USP7 activity assay. The assay is classed as biochemical. To be noted: 400 nM Ub-AMC, 152 pM enzyme; pre-incubated 30 minutes at 25° C., 60 minutes at 37° C.; sigmoidal fit; read-out: USP 7. From the text:
The cDNA encoding USP7 was obtained by PCR amplification from placenta mRNA. USP7 cDNA was subcloned by PCR into a baculovirus expression vector (pFastBac-HT; Invitrogen). A cDNA encoding a mutated USP7 was generated by mutagenic PCR. The corresponding protein encodes a cysteine to alanine substitution at residue 223. The sequences were ascertained by sequencing of the entire open reading frame. Bacmids encoding USP7 were generated following DH10bac transposition. The corresponding bacmids were transfected into insect cells (Sf9). Viruses were recovered from culture supernatant and amplified twice. Insect cells (Sf9 or High Five; lnvitrogen) were infected for 72 hours. Total cell lysates were harvested and lyzed in lysis buffer (Tris HCl 50 mM pH 7.6; 0.75 % NP40; 500 mM NaCl; 10% glycerol; 1 mM DTT; 10 mM imidazole; Protease Inhibitor Cocktail; AEBSF 20 μg.ml^−1; Aprotinin 10 μg.ml^−1). Proteins were affinity purified on metal affinity resins (Talon Metal affinity resin; BD Biosciences). Bound materials were extensively washed in wash buffer (50 mM Sodium Phosphate pH 7.0; 300 mM NaCl; 10 mM imidazole; 0.5% Triton X-100; 10% glycerol) and eluted from the resin in 250 mM imidazole-containing wash buffer. Proteins were dialyzed in dialysis buffer (Tris HCl pH 7.6 20 mM; NaCl 200 mM; DTT 1 mM; EDTA 1 mM; 10% Glycerol). Proteins purifications were analyzed on 4-12% NuPAGE (Invitrogen).
USP7 was diluted in USP buffer (50 mM Tris HCl; 0.5 mM EDTA; 5 mM DTT; 0.01 % Triton X-100; Bovine Serum Albumin 0.05 mg.ml^−1 pH 7.6). Compounds stocks (100 mM) were stored at −20° C. in DMSO. Compounds were tested at the following final concentrations: 100 μM; 33.3 μM; 11.1 μM; 3.7 μM; 1.23 μM; 412 nM; 137 nM; 45.7 nM; 15.2 nM; 5 nM.
Reactions were performed as duplicates in Black LJL 96 well plates (HE microplates; Molecular Devices; 20 μl final reaction volume). The substrate concentration for USP7 was 400 nM Ub-AMC (Chem. Biol., 2003, 10, p. 837-846) (Boston Biochem). The concentrations of the enzyme (USP7) in specificity assays was 152 pM. The concentrations were determined in order to perform specificity assays under initial velocities at fixed substrate concentration. Compounds were pre-incubated with enzymes for 30 minutes at 25° C. Reactions were initiated by addition of substrate to the plates containing the enzymes (+/− compounds) diluted in assay buffer. Reactions were incubated for 60 minutes at 37° C. Reactions were stopped by adding acetic acid (100 mM final). Readings were performed on a Pherastar Fluorescent Reader (BMG). λ Emission 380 nm; λ Excitation=460 nm. Data (mean values +/− standard deviation) were analyzed as % of control (no compound) and plotted as percentage versus the Log of the compound concentration using GraphPad (Prism). Data were fitted to a sigmoidal model (variable slope).

Setting [2] is: Homo sapiens, HCT-116, 72 hours incubation.

T1 sequence (Q93009 whole entry): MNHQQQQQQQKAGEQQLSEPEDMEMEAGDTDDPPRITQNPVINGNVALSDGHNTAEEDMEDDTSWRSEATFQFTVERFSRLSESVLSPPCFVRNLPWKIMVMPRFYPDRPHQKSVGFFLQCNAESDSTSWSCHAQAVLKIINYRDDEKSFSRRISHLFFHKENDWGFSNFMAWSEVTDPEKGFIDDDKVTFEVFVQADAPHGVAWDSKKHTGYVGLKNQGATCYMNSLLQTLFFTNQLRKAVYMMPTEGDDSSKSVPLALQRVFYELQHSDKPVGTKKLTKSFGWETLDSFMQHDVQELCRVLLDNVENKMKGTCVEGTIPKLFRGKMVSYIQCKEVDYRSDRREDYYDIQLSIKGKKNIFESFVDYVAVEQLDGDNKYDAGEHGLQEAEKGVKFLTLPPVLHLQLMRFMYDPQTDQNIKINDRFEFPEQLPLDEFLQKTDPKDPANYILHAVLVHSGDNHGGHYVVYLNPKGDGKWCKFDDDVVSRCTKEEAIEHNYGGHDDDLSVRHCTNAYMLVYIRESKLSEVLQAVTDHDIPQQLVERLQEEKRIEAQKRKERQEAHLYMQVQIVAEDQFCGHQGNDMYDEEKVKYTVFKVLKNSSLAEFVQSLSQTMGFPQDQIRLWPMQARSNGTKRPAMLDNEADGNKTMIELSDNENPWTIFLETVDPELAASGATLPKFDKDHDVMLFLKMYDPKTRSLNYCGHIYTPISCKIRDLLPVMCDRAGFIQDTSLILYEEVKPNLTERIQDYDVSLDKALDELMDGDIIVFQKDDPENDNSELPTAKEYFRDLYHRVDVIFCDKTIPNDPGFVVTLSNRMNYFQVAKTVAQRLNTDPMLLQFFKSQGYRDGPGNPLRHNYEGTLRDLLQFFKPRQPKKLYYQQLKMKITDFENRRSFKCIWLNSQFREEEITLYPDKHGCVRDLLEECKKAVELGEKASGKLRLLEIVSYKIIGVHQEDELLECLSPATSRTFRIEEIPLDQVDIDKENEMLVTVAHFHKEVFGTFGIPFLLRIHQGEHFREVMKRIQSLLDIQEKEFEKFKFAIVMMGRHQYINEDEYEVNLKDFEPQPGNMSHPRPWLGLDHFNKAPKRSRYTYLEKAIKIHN

On to “6-(7)-Chloro-1-methyl-2,3,4,10,10a-pentaaza-cyclopenta[b]fluoren-9-one [Example 3/A]”, for which the concentration for 50% growth inhibition (GI50) in assay [1] (72 hours incubation) was found to be 361 nM. In addition, at USP7, the IC50 was 2800 nM. Consider `CC(C)c1nnc2nc3c(nn12)C(=O)c1ccccc1-3` [Example 1l/A, 1-lsopropyl-2,3,4,10,10a-pentaaza-cyclopenta[b]fluoren-9-one], for which the GI50 in assay [1] (setting [2]) was found to be 2250 nM. As for `CC(C)c1nnc2nc3c(nn12)-c1ccccc1C3=O` [Example 1l/B, 3-Isopropyl-1,2,3a,4,10-pentaaza-cyclopenta[b]fluoren-9-one], in assay [1] (setting [2]), the GI50 is 157 nM. Besides, the IC50 on USP7 was 820 nM. Taken in the same sequence, the figures for `O=C1c2ccccc2-c2nn3c(C(F)(F)F)nnc3nc21` [Example 1m/B, 3-Trifluoromethyl-1,2,3a,4,10-pentaaza-cyclopenta[b]fluoren-9-one] were 28 nM and 226 nM.

As to `COCCOCCOCc1nnc2nc3c(nn12)C(=O)c1ccccc1-3` [Example 1n/A, 1-[2-(2-Methoxy-ethoxy)-ethoxymethyl]-2,3,4,10,10a-pentaaza-cyclopenta[b]fluoren-9-one], the GI50 in assay [1] (setting [2]) stood at 1910 nM. For the same compound, the IC50 at USP7 came out at 1200 nM.

With `COc1cc2c(cc1OC)-c1nn3c(C)nnc3nc1C2=O` [Example 5a/B, 6,7-Dimethoxy-3-methyl-1,2,3a,4,10-pentaaza-cyclopenta[b]fluoren-9-one], the GI50 in assay [1] (setting [2]) amounted to 818 nM. In addition, the IC50 at USP7 is 525 nM. On to `CCc1nnc2nc3c(nn12)C(=O)c1cc(OC)c(OC)cc1-3` [Example 5b/A, 1-Ethyl-6,7-dimethoxy-2,3,4,10,10a-pentaaza-cyclopenta[b]fluoren-9-one], for which, at USP7, the IC50 amounted to 13300 nM. As for `CCc1nnc2nc3c(nn12)-c1cc(OC)c(OC)cc1C3=O` [Example 5b/B, 3-Ethyl-6,7-dimethoxy-1,2,3a,4,10-pentaaza-cyclopenta[b]fluoren-9-one], the 50% growth inhibitory concentration (GI50) in assay [1] (setting [2]) came to 1180 nM. Moreover, the IC50 at USP7 worked out at 1050 nM. Taken in the same sequence, the figures for `CCCc1nnc2nc3c(nn12)-c1cc(OC)c(OC)cc1C3=O` [Example 5c/B, 6,7-Dimethoxy-3-propyl-1,2,3a,4,10-pentaaza-cyclopenta[b]fluoren-9-one] were 594 nM and 936 nM. Regarding `CCc1nnc2nc3c(nn12)-c1c(OC)ccc(OC)c1C3=O` [Example 6/B, 3-Ethyl-5,8-dimethoxy-1,2,3a,4,10-pentaaza-cyclopenta[b]fluoren-9-one], the GI50 in assay [1] (setting [2]) is 257 nM. Besides, at USP7, the IC50 is 3080 nM.
